In patent US20060063782A1, “3-Hetero arylmethoxy ! pyridines and their analogues as p38 map kinase inhibitors” (priority 2002, published 2006) one finds IC50 data, which are given here for 45 compounds.

By IC50 is commonly meant the concentration needed to halve the response being measured.

SMILES strings stand for the structures. Bounds are passed on as bounds.

For the first assay, the target named is p38 MAP kinase (Homo sapiens, UniProt Q16539). The assay is described as follows: p38 MAP Kinase Assay (33P incorporation into myelin basic protein, filter plate). Particulars: Table 1; MKK6-activated p38, MBP substrate, 50 minutes. The assay is classed as biochemical. On the procedure: The activated p38 is then diluted 1:6 with assay buffer, and 20 μl mixed with 25 μl of MBP mix (300 μl 10×strength assay buffer, 300 μl of 10 mM DTT & 10 mM sodium orthovanadate, 1.7 ml H2O, 50 μCi γ^33P-ATP, 200 μl of myelin basic protein (MBP) (5 mg/ml)) and added to 96 well plates along with 5 μl of various dilutions of the test compound in DMSO (up to 10%). The reaction is allowed to proceed for 50 minutes before being stopped with an excess of ortho-phosphoric acid (30 μl at 2%).
Chain of p38 MAP kinase (Q16539 whole entry): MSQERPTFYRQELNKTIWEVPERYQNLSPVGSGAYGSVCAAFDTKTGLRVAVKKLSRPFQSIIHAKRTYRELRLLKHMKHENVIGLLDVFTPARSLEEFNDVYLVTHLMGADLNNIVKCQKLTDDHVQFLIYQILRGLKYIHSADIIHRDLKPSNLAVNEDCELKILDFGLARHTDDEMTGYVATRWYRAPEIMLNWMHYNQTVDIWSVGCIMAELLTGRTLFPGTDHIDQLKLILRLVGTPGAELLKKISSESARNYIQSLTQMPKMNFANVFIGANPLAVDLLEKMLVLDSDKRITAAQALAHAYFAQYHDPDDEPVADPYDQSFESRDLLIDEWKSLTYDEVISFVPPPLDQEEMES
γ^33P-ATP which remains unincorporated into the myelin basic protein is separated from phosphorylated MBP on a Millipore MAPH filter plate. The wells of the MAPH plate are wetted with 0.5% orthophosphoric acid, and then the results of the reaction are filtered with a Millipore vacuum filtration unit through the wells. Following filtration, the residue is washed twice with 200 μl of 0.5% orthophosphoric acid. Once the filters have dried, 25 μl of Microscint 20 scintillant is added, and then counted on a Packard Topcount for 30 seconds.
Take `Nc1ncccc1OCc1ccccc1C(F)(F)F` [Compound 23]: the IC50 is < 100 µM.

Take `c1cncc(OCc2cccc3ccccc23)c1` [Compound 11, 3-(1-Naphthylmethyloxy)pyridine]: the concentration for half-maximal inhibition (IC50) is < 1000 µM.

For `Clc1cccc(Cl)c1COc1ccc(NCc2ccccc2)nc1` [Compound 51], the IC50 was < 200 µM.

For `O=C(Nc1ccc(Cl)c(COc2cccnc2)c1)c1cccc(C(F)(F)F)c1` [Compound 69, N-[4-Chloro-3-(pyridin-3-yloxymethyl)-phenyl]-3-trifluoromethyl-benzamide], the IC50 is < 20 µM.

Consider `O=C(Nc1ccc(Cl)c(COc2ccc(NCc3ccccc3)nc2)c1)c1cc(F)cc(N2CCOCC2)c1` [Compound 77, N-[3-(6-Benzylamino-pyridin-3-yloxymethyl)-4-chloro-phenyl]-3-fluoro-5-morpholin-4-yl-benzamide], for which the IC50 is < 2 µM.

In the case of `Nc1ncccc1OCc1ccc(F)c(F)c1` [Compound 14, 2-amino-3-(3,4-difluorobenzyloxy)pyridine], the IC50 was < 1000 µM.

For the compound `Nc1ncccc1OCc1cc2c(cc1Cl)OCO2` [Compound 18, 2-amino-3-(2-chloro-4,5-(methylenedioxy)benzyloxy)pyridine], the IC50 is < 1000 µM.

For `O=C1c2ccccc2CN1c1ccc(F)c(COc2cccnc2)c1` [Compound 80], the IC50 was < 1000 µM.

Take `O=C(Nc1ccc(F)c(COc2cccnc2)c1)c1cccc(F)c1` [Compound 60, 3-Fluoro-N-[4-fluoro-3-(pyridin-3-yloxymethyl)-phenyl]-benzamide]: the IC50 is < 200 µM.

Consider `CC(C)(C)c1cccc(C(=O)Nc2ccc(Cl)c(COc3cccnc3)c2)c1` [Compound 65, 3-tert-Butyl-N-[4-chloro-3-(pyridin-3-yloxymethyl)-phenyl]-benzamide], for which the IC50 is < 2 µM.

In the case of `O=C(Nc1ccc(Cl)c(COc2cccnc2)c1)c1ccccc1` [Compound 52, N-[4-Chloro-3-(pyridin-3-yloxymethyl)-phenyl]-benzamide], the IC50 is < 20 µM.

Consider `Nc1ncccc1OCn1nnc2ccccc21` [Compound 37], for which the IC50 is < 1000 µM.

Consider `CC(C)(C)c1cc(NC(=O)Nc2ccc(Cl)c(COc3cccnc3)c2)n(-c2ccccc2)n1` [Compound 64, 1-(5-tert-Butyl-2-phenyl-2H-pyrazol-3-yl)-3-[4-chloro-3-(pyridin-3-yloxymethyl)-phenyl]-urea], for which the IC50 was < 2 µM.

Staying with this assay, now noted: Table 2; MKK6-activated p38, MBP substrate, 50 minutes.
In the case of `CC(C)(C)n1nc(-c2ccccc2)cc1NC(=O)Nc1ccc(F)c(COc2cnccn2)c1` [Compound 129], the IC50 is < 20 µM.

Regarding `c1ccc(CNc2cccc(COc3cnccn3)c2)cc1` [Compound 108], the IC50 is < 1000 µM.

With `O=C(Nc1ccc(F)c(COc2cnccn2)c1)c1cccc(Oc2ccccc2)c1` [Compound 102, N-[4-Fluoro-3-(pyrazin-2-yloxymethyl)-phenyl]-3-phenoxy-benzamide], the IC50 was < 2 µM.

Regarding `CC(C)(C)c1cc(NC(=O)Nc2ccc(F)c(COc3cnccn3)c2)n(-c2ccc(Cl)cc2)n1` [Compound 127, 1-[5-tert-Butyl-2-(4-chloro-phenyl)-2H-pyrazol-3-yl]-3-[4-fluoro-3-(pyrazin-2-yloxymethyl)-phenyl]-urea], the IC50 was < 2 µM.

On to `CNc1cnc(OCc2c(Cl)cccc2Cl)cn1` [Compound 148, [5-(2,6-Dichloro-benzyloxy)-pyrazin-2-yl]-methyl-amine], for which the IC50 was < 200 µM.

In the case of `O=C(Nc1ccc(F)c(COc2cnccn2)c1)Nc1cc(-c2ccc(Cl)cc2)nn1-c1ccc(F)cc1` [Compound 132, 1-[5-(4-Chloro-phenyl)-2-(4-fluoro-phenyl)-2H-pyrazol-3-yl]-3-[4-fluoro-3-(pyrazin-2-yloxymethyl)-phenyl]-urea], the IC50 was < 2 µM.

In the case of `Nc1cnc(OCc2c(Cl)cccc2Cl)cn1` [Compound 110], the IC50 is < 200 µM.

Consider `CC(C)(C)c1cc(NC(=O)Nc2ccc(F)c(COc3cnccn3)c2)n(-c2ccc(S(C)(=O)=O)cc2)n1` [Compound 163, 1-[5-tert-Butyl-2-(4-methanesulfonyl-phenyl)-2H-pyrazol-3-yl]-3-[4-fluoro-3-(pyrazin-2-yloxymethyl)-phenyl]-urea], for which the IC50 was < 2 µM.

For `CN1CCN(CC(=O)Nc2cnc(OCc3c(Cl)cccc3Cl)cn2)CC1` [Compound 170], the IC50 is < 20 µM.

As to `NS(=O)(=O)CCNC(=O)c1cnc(OCc2c(Cl)cccc2Cl)cn1` [Compound 138, 5-(2,6-dichloro-benzyloxy)-pyrazine-2-carboxylic acid (2-sulfamoyl-ethyl)-amide], the IC50 was < 1000 µM.

Turning to `Nc1ncc(OCc2ccccc2)nc1Br` [Compound 84], the IC50 is < 1000 µM.

For `OCCNc1cnc(OCc2c(Cl)cccc2Cl)cn1` [Compound 158, 2-[5-(2,6-Dichloro-benzyloxy)-pyrazin-2-ylamino]-ethanol], the IC50 was < 200 µM.

As for `Nc1ccc(Cl)c(COc2cnccn2)c1` [Compound 91], the IC50 is < 1000 µM.

As to `CCNC(=O)c1cnc(OCc2c(Cl)cccc2Cl)cn1` [Compound 111, 5-(2,6-Dichloro-benzyloxy)-pyrazine-2-carboxylic acid ethylamide], the IC50 is < 1000 µM.

On to `Cc1nc(-c2cc(C(=O)Nc3ccc(F)c(COc4cnccn4)c3)no2)cs1` [Compound 124, 5-(2-Methyl-thiazol-4-yl)-isoxazole-3-carboxylic acid [4-fluoro-3-(pyrazin-2-yloxymethyl)-phenyl]-amide], for which the IC50 is < 200 µM.

Consider `CC(C)(C)c1cc(NC(=O)Nc2ccc(F)c(COc3cnccn3)c2)n(Cc2ccccc2)n1` [Compound 153, 1-(2-Benzyl-5-tert-butyl-2H-pyrazol-3-yl)-3-[4-fluoro-3-(pyrazin-2-yloxymethyl)-phenyl]-urea], for which the IC50 is < 2 µM.

As for `O=C(Nc1ccc(F)c(COc2cnccn2)c1)Nc1n[nH]cc1-c1ccccc1` [Compound 119, 1-[4-Fluoro-3-(pyrazin-2-yloxymethyl)-phenyl]-3-(4-phenyl-1H-pyrazol-3-yl)-urea], the IC50 is < 20 µM.

Regarding `O=C(Nc1ccc(F)c(COc2cnccn2)c1)Nc1cc(-c2ccccc2)[nH]n1` [Compound 118, 1-[4-Fluoro-3-(pyrazin-2-yloxymethyl)-phenyl]-3-(5-phenyl-1H-pyrazol-3-yl)-urea], the IC50 is < 2 µM.

`O=C(CC1CCOCC1)Nc1cnc(OCc2c(Cl)cccc2Cl)cn1` [Compound 173]: the IC50 is < 200 µM.

For the compound `Cc1cc(-n2nc(C(C)(C)C)cc2NC(=O)Nc2ccc(F)c(COc3cnccn3)c2)nc(C)n1` [Compound 157, 1-[5-tert-Butyl-2-(2,6-dimethyl-pyrimidin-4-yl)-2H-pyrazol-3-yl]-3-[4-fluoro-3-(pyrazin-2-yloxymethyl)-phenyl]-urea], the IC50 was < 2 µM.

Regarding `CC(Nc1cnc(OCc2c(Cl)cccc2Cl)cn1)c1ccccc1` (stereo not drawn) [Compound 154, [5-(2,6-Dichloro-benzyloxy)-pyrazin-2-yl]-(1-phenyl-ethyl)-amine], the IC50 is < 20 µM.

`CC(C)(Cc1ccncc1)NC(=O)c1cnc(OCc2c(Cl)cccc2Cl)cn1` [Compound 139, 5-(2,6-Dichloro-benzyloxy)-pyrazine-2-carboxylic acid (1,1-dimethyl-2-pyridin-4-yl-ethyl)-amide]: the IC50 was < 20 µM.

Regarding `CC(C)(C)c1ccc(C(=O)Nc2ccc(F)c(COc3cnccn3)c2)cc1` [Compound 101, 4-tert-Butyl-N-[4-fluoro-3-(pyrazin-2-yloxymethyl)-phenyl]-benzamide], the IC50 is < 20 µM.

In the case of `Nc1nccnc1OCc1cccc2ccccc12` [Compound 82], the IC50 is < 1000 µM.

Turning to `c1cc(COc2cnccn2)cc(Nc2nc3ccccc3o2)c1` [Compound 109], the IC50 is < 200 µM.

On to `O=C(Nc1ccc(F)c(COc2cnccn2)c1)Nc1nnc(Cc2ccccc2)s1` [Compound 121, 1-(5-Benzyl-[1,3,4]thiadiazol-2-yl)-3-[4-fluoro-3-(pyrazin-2-yloxymethyl)-phenyl]-urea], for which the IC50 is < 2 µM.

For `CSc1nnc(NC(=O)Nc2ccc(F)c(COc3cnccn3)c2)s1` [Compound 149, 1-[4-Fluoro-3-(pyrazin-2-yloxymethyl)-phenyl]-3-(5-methylsulfanyl-[1,3,4]thiadiazol-2-yl)-urea], the IC50 was < 200 µM.

`Nc1cccc(COc2cncc(Cl)n2)c1` [Compound 85]: the IC50 is < 1000 µM.

As to `CC(C)(C)c1cc(C(=O)Nc2ccc(F)c(COc3cnccn3)c2)cc(C(C)(C)C)c1` [Compound 146, 3,5-Di-tert-butyl-N-[4-fluoro-3-(pyrazin-2-yloxymethyl)-phenyl]-benzamide], the IC50 was < 2 µM.

Consider `O=C(Nc1ccc(F)c(COc2cnccn2)c1)Nc1cc(C2CCOCC2)nn1-c1ccc(F)cc1` [Compound 165, 1-[2-(4-Fluoro-phenyl)-5-(tetrahydro-pyran-4-yl)-2H-pyrazol-3-yl]-3-[4-fluoro-3-(pyrazin-2-yloxymethyl)-phenyl]-urea], for which the IC50 is < 2 µM.

Consider `CC(CO)(CO)NC(=O)c1cnc(OCc2c(Cl)cccc2Cl)cn1` [Compound 137, 5-(2,6-Dichloro-benzyloxy)-pyrazine-2-carboxylic acid (2-hydroxy-1-hydroxymethyl-1-methyl-ethyl)-amide], for which the IC50 was < 2 µM.

On to `Nc1ncc(OCc2cccc3ccccc23)nc1Br` [Compound 83], for which the IC50 is < 1000 µM.
